pIC50: −log10 of the molar value. The source made the active and inactive calls. No cut-off for these calls is given here.
Experiments:
[1] = test system: LN-229; experiment: Induction of [14C]acetate incorporation in human LN229 cells at 2 uM after 24 hrs by Beta-counting; assay type: functional, cell-based
[2] = test system: LN-18; experiment: Cytotoxicity against human LN18 cells at 2 to 10 uM after 72 hrs by MTT assay in presence of atorvastatin; assay type: functional, cell-based
[3] = test system: LN-229; experiment: Inhibition of DNA synthesis in human LN229 cells assessed as inhibition of tritiated thymidine incorporation at 1 to 3 uM after 24 hrs by beta counting; assay type: functional, cell-based
[4] = test system: KB; experiment: Cytotoxicity against human KB cells after 72 hrs by MTT assay; assay type: functional, cell-based
[5] = (§1) Cytotoxicity against human LN18 cells assessed as reduction in cell survival after 72 hrs by MTT assay; assay type: functional, cell-based; settings: LN-18, 72 h
[6] = test system: LN-18; experiment: as §1; assay type: functional, cell-based
[7] = test system: LNCaP; experiment: Cytotoxicity against human LNCAP cells after 72 hrs by MTT assay; assay type: functional, cell-based
[8] = Chemical stability of compound at pH 4.0 after 24 hrs; assay type: physicochemical; settings: buffer, pH 4, 24 h
[9] = test system: LN-229; experiment: Cytotoxicity against human LN229 cells at 4 to 10 uM after 72 hrs by MTT assay; assay type: functional, cell-based
[10] = Cytotoxicity against human HCEC cells at 2 to 10 uM after 72 hrs in by MTT assay in presence of atorvastatin; assay type: cell-based
[11] = test system: OVCAR; experiment: Cytotoxicity against human OVCAR cells after 72 hrs by MTT assay; assay type: functional, cell-based
[12] = test system: Caco-2; experiment: cells; settings: Homo sapiens, Caco-2, 72 h
Description: Cytotoxicity against human Caco2 cells after 72 hrs by MTT assay

[13] = test system: LN-229; experiment: Induction of [14C]acetate incorporation in human LN229 cells at 2 uM after 24 hrs by Beta-counting in presence of 2.5 to 10 uM atorvastatin; assay type: functional, cell-based
[14] = test system: MCF7; experiment: cells; settings: Homo sapiens, MCF7, 72 h
Description: Cytotoxicity against human MCF7 cells after 72 hrs by MTT assay

[15] = test system: LN-18; experiment: Inhibition of DNA synthesis in human LN18 cells assessed as inhibition of tritiated thymidine incorporation at 1 to 3 uM after 24 hrs by beta counting; assay type: functional, cell-based
[16] = Cytotoxicity against human LN229 cells assessed as decrease in cell survival at 2 uM after 72 hrs by MTT assay in presence of 2.5 uM atorvastatin; assay type: functional, LN-229
[17] = biological target: T1, Lanosterol synthase (Homo sapiens, UniProt P48449); experiment: Inhibition of human liver microsome 2,3-OSC after 1 hr by Silica gel plate phosphor imaging
T1 sequence (P48449 whole entry): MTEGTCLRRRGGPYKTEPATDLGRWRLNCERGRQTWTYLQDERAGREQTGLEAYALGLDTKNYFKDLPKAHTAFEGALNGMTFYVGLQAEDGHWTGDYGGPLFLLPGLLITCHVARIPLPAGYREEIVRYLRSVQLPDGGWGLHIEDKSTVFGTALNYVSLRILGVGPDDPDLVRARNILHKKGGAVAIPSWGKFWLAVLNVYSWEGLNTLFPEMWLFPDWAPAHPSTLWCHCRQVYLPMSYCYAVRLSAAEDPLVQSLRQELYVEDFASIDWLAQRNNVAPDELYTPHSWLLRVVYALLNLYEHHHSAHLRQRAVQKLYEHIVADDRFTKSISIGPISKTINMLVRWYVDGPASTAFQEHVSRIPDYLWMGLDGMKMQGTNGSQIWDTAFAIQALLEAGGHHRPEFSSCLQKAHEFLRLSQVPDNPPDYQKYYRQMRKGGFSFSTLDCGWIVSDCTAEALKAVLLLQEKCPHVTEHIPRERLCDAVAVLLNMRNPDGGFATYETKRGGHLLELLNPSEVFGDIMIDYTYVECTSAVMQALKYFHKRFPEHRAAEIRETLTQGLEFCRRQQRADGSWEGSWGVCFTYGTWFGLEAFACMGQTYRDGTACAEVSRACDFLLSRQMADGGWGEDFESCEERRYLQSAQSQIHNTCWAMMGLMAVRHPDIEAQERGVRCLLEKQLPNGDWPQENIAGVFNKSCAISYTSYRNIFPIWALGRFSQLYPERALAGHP

[18] = Cytotoxicity against human LNZ308 cells after 72 hrs by MTT assay; assay type: functional, cell-based; settings: LNZ308, 72 h
[19] = test system: A549; experiment: Cytotoxicity against human A549 cells after 72 hrs by MTT assay; assay type: functional, cell-based; settings: A549, 72 h
[20] = Chemical stability of compound at pH 7.4 after 24 hrs; assay type: physicochemical; settings: buffer, pH 7.4, 24 h
[21] = cells; settings: Homo sapiens, HCEC, 72 h
Description: Cytotoxicity against human HCEC cells assessed as reduction in cell survival after 72 hrs by MTT assay

[22] = Cytotoxicity against human Me300 cells after 72 hrs by MTT assay; assay type: functional, cell-based; settings: Me300, 72 h
[23] = test system: LN-18; experiment: Induction of [14C]acetate incorporation in human LN18 cells at 2 uM after 24 hrs by Beta-counting; assay type: functional, cell-based
[24] = (§2) Cytotoxicity against human LN229 cells assessed as reduction in cell survival after 72 hrs by MTT assay; assay type: functional, cell-based; settings: LN-229, 72 h
[25] = test system: LN-229; experiment: as §2; assay type: functional, cell-based
[26] = test system: LN-18; experiment: Induction of [14C]acetate incorporation in human LN18 cells at 2 uM after 24 hrs by Beta-counting in presence of 2.5 to 10 uM atorvastatin; assay type: functional, cell-based
[27] = physchem; settings: 1-octanol/TAPSO buffer, pH 7.4
Description: 1-Octanol-TAPSO buffer distribution coefficient, log D of the compound at pH 7.4 by shake-flask method

[28] = test system: LN-229; experiment: Cytotoxicity against human LN229 cells at 4 to 10 uM after 72 hrs by MTT assay in presence of atorvastatin; assay type: functional, cell-based
[29] = in vitro; settings: pampa, pH 6.5
Description: Apparent permeability of compound at pH 6.5 by PAMPA

[30] = test system: HeLa; experiment: cells; settings: Homo sapiens, 72 h
Description: Cytotoxicity against human HeLa cells after 72 hrs by MTT assay

[31] = pampa, pH 6.5
Description: Permeability of compound at pH 6.5 assessed as compound binding to lipid membrane by PAMPA

[32] = test system: LN-18; experiment: Inhibition of lipid synthesis in human LN18 cells assessed as [14C]acetate incorporation after 24 hrs by Beta-counting; assay type: functional, cell-based
[33] = test system: LN-229; experiment: Inhibition of lipid synthesis in human LN229 cells assessed as [14C]acetate incorporation after 24 hrs by Beta-counting; assay type: functional, cell-based
[34] = test system: LN-18; experiment: Cytotoxicity against human LN18 cells after 72 hrs by MTT assay in presence of atorvastatin; assay type: functional, cell-based
[35] = test system: LN-229; experiment: Cytotoxicity against human LN229 cells at 4 uM after 72 hrs by MTT assay in presence of atorvastatin; assay type: functional, cell-based

Compound	inhibition [3]	pIC50 [4]	pIC50 [5]	pIC50 [7]	Stability [8]	pIC50 [11]	pIC50 [12]	pIC50 [14]	inhibition [15]	pIC50 [17]	pIC50 [18]	pIC50 [19]	Stability [20]	pIC50 [21]	pIC50 [22]	pIC50 [24]	logD [27]	Papp [29] [×10⁻⁶ cm/s]	pIC50 [30]	permeability [31] [%]	also measured
CCN(CCO)CCCCOc1ccc2c(-c3ccc(Br)cc3)nsc2c1.Cl	Active	5.33	5.70	< 4.52	Stable	4.78	5.98	5.25	Active	7.75	5.33	5.29	Stable	5.66	5.21	5.54	3.39	0.22	5.20	37	Activity [1]: Active; Activity [2]: Active; Activity [6]: Dose-dependent effect; Activity [9]: Active; Activity [10]: Non-toxic; Activity [13]: Active; Activity [16]: 80%; Activity [23]: Active; Activity [25]: Dose-dependent effect; Activity [26]: Active; Activity [28]: Active
CC(C)c1c(C(=O)Nc2ccccc2)c(-c2ccccc2)c(-c2ccc(F)cc2)n1CC[C@@H](O)C[C@@H](O)CC(=O)O [ATORVASTATIN CALCIUM]	Active	5.71	5.16	< 4.52	–	< 4.52	–	< 4.52	Active	–	5.13	< 4.52	–	–	5.92	5.09	–	–	5.37	–	inhibition [32]: Dose-dependent effect; inhibition [33]: Dose-dependent effect
C=CCN(C)Cc1ccc(-c2ccc(C(=O)c3ccc(Br)cc3)cc2)cc1.Cl	Active	5.69	5.64	5.29	Stable	< 4.52	5.42	4.59	Active	8.10	4.84	5.21	Stable	< 4.52	4.86	4.75	3.13	0.64	5.57	58	Activity [6]: Dose-dependent effect; Activity [34]: Active; Activity [25]: Dose-dependent effect
CCN(CCO)C[C@H]1CC[C@H](CCN(C)C(=O)Oc2ccc(C(F)(F)F)cc2)CC1.O=C(O)CC(O)(CC(=O)O)C(=O)O	Active	5.00	4.72	< 4.52	Stable	< 4.52	5.00	< 4.52	Active	7.90	4.63	4.64	Stable	< 4.52	< 4.52	< 4.52	2.53	5.11	5.00	5	–
CN(CCO)CCCCC[C@H]1CC[C@H](N(C)S(=O)(=O)c2ccc(C(F)(F)F)cc2)CC1.O=C(O)/C=C/C(=O)O	Active	5.37	< 4.52	< 4.52	Stable	< 4.52	5.57	4.91	Active	7.95	< 4.52	5.22	Stable	4.72	4.68	< 4.52	3.07	1.79	5.34	50	–
C=CCN(C)CCCCCCOc1ccc2c(-c3ccc(Br)cc3)nsc2c1.O=C(O)/C=C/C(=O)O	Active	5.07	5.12	4.71	Stable	< 4.52	5.71	5.08	Active	–	5.36	5.22	Stable	5.32	4.87	5.28	3.43	0.57	5.05	40	Activity [2]: Active; Activity [6]: Dose-dependent effect; Activity [35]: Active
CCCN(C)CCCC#C[C@H]1CC[C@H](N(C)C(=O)Oc2ccc(Cl)cc2)CC1.O=C(O)/C=C/C(=O)O	Active	5.34	4.55	4.73	Stable	< 4.52	5.17	< 4.52	Active	8.11	4.90	5.08	Stable	4.58	4.72	< 4.52	3.28	0.81	5.17	0	–
CN(CC[C@H]1CC[C@H](C(=O)N2CCC(O)CC2)CC1)C(=O)Oc1ccc(Cl)cc1	Active	5.12	< 4.52	5.26	Stable	< 4.52	< 4.52	< 4.52	Active	7.54	< 4.52	< 4.52	Stable	< 4.52	4.60	< 4.52	2.93	5.05	4.66	2	–
C=CCN(C)CCCCC[C@H]1CC[C@H](N(C)C(=O)Oc2ccc(C(F)(F)F)cc2)CC1.O=C(O)CC(O)(CC(=O)O)C(=O)O	Active	5.99	5.55	5.34	Stable	4.89	5.20	4.68	Active	8.30	5.68	5.16	Stable	5.29	4.80	5.08	3.48	13	5.97	25	–
CCN(CCO)CCCC#C[C@H]1CC[C@H](N(C)C(=O)Oc2ccc(Cl)cc2)CC1.Cl	Active	5.23	4.87	4.63	Stable	< 4.52	5.32	< 4.52	Active	8.00	4.82	4.87	Stable	4.54	4.58	4.68	2.51	2.87	5.06	10	–
